This note sets out measurements from patent US7320979B2, “N-[(piperazinyl)hetaryl]arylsulfonamide compounds” (Abbott GmbH & Co. KG., priority 2003, dated 2008).

The target in assay [1] is T1, human dopamine D3 receptors (Homo sapiens, UniProt P35462).
T1 construct: expressed in transfected cells; host or cells: HEK-293
Put plainly: Dopamine D3 receptor binding, displacement of [125I]-iodosulpride. As to conditions: membranes of HEK-293 cells stably expressing human D3 receptors; 0.1 nM [125I]-iodosulpride; 25° C., 60 minutes. The method, then:
(§1) The substance to be tested was either dissolved in methanol/Chremophor® (BASF-AG) or in dimethyl sulfoxide and then diluted with water to the desired concentration.
(§2) Each assay mixture was run in triplicate.
The incubation buffer contained 50 mM tris, 120 mM NaCl, 5 mM KCl, 2 mM CaCl2, 2 mM MgCl2 and 0.1% bovine serum albumin, 10 μM […] and 0.1% ascorbic acid (prepared fresh daily). The buffer was adjusted to pH 7.4 with HCl.
(§3) After having been incubated at 25° C. for 60 minutes, the assay mixtures were filtered through a Whatman GF/B glass fiber filter under vacuum using a cell collecting device. The filters were transferred to scintillation viols using a filter transfer system. After 4 ml of Ultima Gold® (Packard) have been added, the samples were shaken for one hour and the radioactivity was then counted in a Beta-Counter (Packard, Tricarb 2000 or 2200CA). The cpm values were converted into dpm using a standard quench series and the program belonging to the instrument.
(§4) The inhibition curves were analyzed by means of iterative nonlinear regression analysis using the Statistical Analysis System (SAS) which is similar to the “LIGAND” program described by Munson and Rodbard.
(Loss of bound radioactivity is the signal in a displacement assay; it reports binding, not function.)

Assay [2] deals with T2, human dopamine D2L receptors (long isoform) (Homo sapiens, UniProt P14416).
T2 construct: expressed in transfected cells; host or cells: HEK-293
T2 sequence (P14416 whole entry, canonical isoform): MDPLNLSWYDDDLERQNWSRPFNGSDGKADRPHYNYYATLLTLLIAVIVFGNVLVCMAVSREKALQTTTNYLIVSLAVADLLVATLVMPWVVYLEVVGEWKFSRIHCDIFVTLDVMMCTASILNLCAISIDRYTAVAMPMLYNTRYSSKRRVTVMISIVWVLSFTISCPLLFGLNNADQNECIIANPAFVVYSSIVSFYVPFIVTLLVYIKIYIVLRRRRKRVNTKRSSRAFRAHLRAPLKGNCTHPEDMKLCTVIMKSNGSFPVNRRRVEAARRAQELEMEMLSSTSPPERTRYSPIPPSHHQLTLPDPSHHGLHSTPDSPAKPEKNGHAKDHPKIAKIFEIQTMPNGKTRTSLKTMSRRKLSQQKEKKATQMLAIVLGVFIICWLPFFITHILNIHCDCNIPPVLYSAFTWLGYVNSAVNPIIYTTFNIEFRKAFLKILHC
Briefly: Dopamine D2L receptor binding, displacement of [125I] iodospiperone. To be noted: footnote: ratio of the Ki values of the D3 and D2L binding tests. The method, then:
as §1, §2
The incubation buffer contained 50 mM tris, 120 mM NaCl, 5 mM KCl, 2 mM CaCl2, 2 mM MgCl2 and 0.1% bovine serum albumin. The buffer was adjusted to pH 7.4 with HCl.
as §3, §4

Structures can show the parent of a compound that is named as a salt.

T1 sequence (P35462 whole entry): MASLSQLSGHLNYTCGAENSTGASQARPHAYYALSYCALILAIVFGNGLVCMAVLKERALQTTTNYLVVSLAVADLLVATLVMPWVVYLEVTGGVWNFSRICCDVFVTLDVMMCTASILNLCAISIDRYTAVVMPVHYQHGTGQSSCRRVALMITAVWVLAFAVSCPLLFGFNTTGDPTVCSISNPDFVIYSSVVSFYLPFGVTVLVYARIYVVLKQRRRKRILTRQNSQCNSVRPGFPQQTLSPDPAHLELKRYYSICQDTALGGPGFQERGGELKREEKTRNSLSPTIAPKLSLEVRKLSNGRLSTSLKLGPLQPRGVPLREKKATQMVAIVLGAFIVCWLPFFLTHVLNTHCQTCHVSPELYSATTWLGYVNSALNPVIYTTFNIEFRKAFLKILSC

Broadly, the Ki is the equilibrium dissociation constant of an inhibitor or competing ligand from its target. A high value points to weaker binding. As to `CCCN1C(C)CN(c2ncccc2NS(=O)(=O)c2ccc(C(C)C)cc2)CC1C.O=C(O)C(F)(F)F` (centres unmarked) [Example 22, 4-Isopropyl-N-[2-(3,5-dimethyl-4-propylpiperazin-1-yl)pyridin-3-yl]benzenesulfonamide trifluoroacetate], the affinity in assay [1], expressed as Ki, was 21.9 nM. The “Selectivity vs. D2L” value in assay [2] worked out at 22.
The corresponding values for `CCCN1CC2CC1CN2c1ccc(NS(=O)(=O)c2ccc(C(C)C)cc2)cn1.Cl` (centres unmarked) [Example 29, 4-Isopropyl-N-[6-(5-propyl-2,5-diazabicyclo[2.2.1]hept-2-yl)pyridin-3-yl]-benzenesulfonamide hydrochloride] are 16.9 nM and 31.
Regarding `CCN1CCN(c2ncc(NS(=O)(=O)c3ccc(C(C)C)cc3)cn2)C[C@@H]1C.Cl` [Example 54, N-[2-((S)-4-Ethyl-3-methyl-piperazin-1-yl)-pyrimidin-5-yl]-4-isopropylbenzenesulfonamide, hydrochloride], the Ki in assay [1] worked out at 2.3 nM. For the same compound, in assay [2], the “Selectivity vs. D2L” value is recorded as 84.
Take `C=Cc1ccc(S(=O)(=O)Nc2cnc(N3CCN(CCC)CC3)cc2C)cc1.Cl` [Example 39, N-[4-Methyl-6-(4-propylpiperazin-1-yl)pyridin-3-yl]-4-vinylbenzenesulfonamide hydrochloride]: the affinity in assay [1], expressed as Ki, was 34.6 nM. Moreover, in assay [2], the “Selectivity vs. D2L” value is recorded as 30.
For `C=CCN1CCN(c2ccc(NS(=O)(=O)c3ccc(C(C)(C)CC)cc3)c(C)n2)CC1` [Example 45, 4-tert-pentyl-[N-[2-(4-Allylpiperazin-1-yl)-6-methylpyridin-5-yl]-benzenesulfonamide, Fumarate], in that order: 1.4 nM and 24.
For `CCCN1CCN(c2ccc(NS(=O)(=O)c3ccc(C(C)C)cc3)cn2)C[C@@H]1CC.Cl` [Example 51, N-[6-((S)-3-Ethyl-4-propyl-piperazin-1-yl)-pyridin-3-yl]-4-isopropylbenzenesulfonamide, hydrochloride], in that order: 3.1 nM and 101.
As to `C=CCN1CCN(c2ccc(NS(=O)(=O)c3ccc(Cl)cc3)cn2)CC1.Cl` [Example 35, N-[6-(4-Allylpiperazin-1-yl)pyridin-3-yl]-4-chlorobenzenesulfonamide hydrochloride], the affinity in assay [1] corresponds to a Ki of 26.6 nM. Also, in assay [2], the “Selectivity vs. D2L” value was 51.
With `CCCN1CCN(c2ccc(NS(=O)(=O)c3ccc(CC)cc3)cn2)CC1.Cl` [Example 34, 4-Ethyl-N-[6-(4-propylpiperazin-1-yl)pyridin-3-yl]-benzenesulfonamide hydrochloride], the affinity in assay [1], expressed as Ki, was 9.6 nM. In assay [2], the “Selectivity vs. D2L” value stood at 73.
For the compound `CCCN1CCN(c2ccc(NS(=O)(=O)c3ccc(CC)cc3)cn2)C[C@@H]1C.Cl` [Example 46, 4-Ethyl-N-[6-((S)-3-methyl-4-propyl-piperazin-1-yl)-pyridin-3-yl]-benzenesulfonamide, hydrochloride], the Ki in assay [1] was 7.1 nM. Further, the “Selectivity vs. D2L” value in assay [2] came to 50.
For `C=CCN1CCN(c2ncc(NS(=O)(=O)c3ccc(C(C)C)cc3)cn2)CC1` [Example 16, N-[2-(4-Allylpiperazin-1-yl)pyrimidin-5-yl]-4-isopropylbenzenesulfonamide], in that order: 3.8 nM and 131.
In assay [1], `C=CCN1CCN(c2ccc(NS(=O)(=O)c3ccc(Br)cc3)cn2)CC1.Cl` [Example 19, N-[2-(4-Allylpiperazin-1-yl)pyridin-5-yl]-4-bromobenzenesulfonamide hydrochloride] yielded a Ki of 36.9 nM. The “Selectivity vs. D2L” value in assay [2] is on record as 91.
The corresponding values for `CC(C)c1ccc(S(=O)(=O)Nc2cnc(N3CCNCC3)nc2)cc1` [Example 52, 4-Isopropyl-N-(2-piperazin-1-yl-pyrimidin-5-yl)-benzenesulfonamide] are 14.2 nM and 63.
For `C=CCN1CCN(c2ccc(NS(=O)(=O)c3ccc(C(C)C)cc3)cn2)CC1C.Cl` (racemic) [Example 13, N-[6-(4-Allyl-3-methylpiperazin-1-yl)pyridin-3-yl]-4-isopropylbenzenesulfonamide hydrochloride], in that order: 3.6 nM and 131.
In turn, `C=CCN1CCN(c2ccc(NS(=O)(=O)c3ccc(C(C)C)cc3)cn2)C[C@@H]1C` [Example 13a, N-{6-[4-Allyl-(3S)-methylpiperazin-1-yl]pyridin-3-yl}-4-isopropylbenzenesulfonamide] registered a Ki in assay [1] of 2.7 nM. In addition, the “Selectivity vs. D2L” value in assay [2] is given as 96.
In assay [1], `C=CCN1C(C)CN(c2ccc(NS(=O)(=O)c3ccc(C(C)C)cc3)cn2)CC1C.Cl` (centres unmarked) [Example 24, N-[6-(4-Allyl-3,5-dimethylpiperazin-1-yl)pyridin-3-yl]-4-isopropylbenzenesulfonamide hydrochloride] gave a Ki of 25 nM. In addition, in assay [2], the “Selectivity vs. D2L” value worked out at 47.
In turn, `CCCN1CCN(c2ccc(NS(=O)(=O)c3ccc(Cl)cc3)cn2)CC1` [Example 28, 4-Chloro-N-[6-(4-propylpiperazin-1yl)pyridin-3-yl]-benzenesulfonamide] showed a Ki in assay [1] of 25.3 nM. Further, the “Selectivity vs. D2L” value in assay [2] is 67.
`C=CCN1CCN(c2ccc(NS(=O)(=O)c3ccc(C(C)C)cc3)cn2)CC1` [Example 1, N-[6-(4-Allylpiperazin-1-yl)pyridin-3-yl]-4-isopropylbenzenesulfonamide]: the Ki in assay [1] amounted to 3 nM. Further, the “Selectivity vs. D2L” value in assay [2] is given as 232.
For `CCCN1CCN(c2ccc(NS(=O)(=O)c3ccc(C(C)C)cc3)cn2)CC1C.Cl` (racemic) [Example 14, 4-Isopropyl-N-[6-(3-methyl-4-propylpiperazin-1-yl)pyridin-3-yl]benzenesulfonamide hydrochloride], in that order: 2.5 nM and 81.
Turning to `C=Cc1ccc(S(=O)(=O)Nc2cnc(N3CCN(CCC)[C@@H](C)C3)nc2)cc1.Cl` [Example 58, N-[2-((S)-3-Methyl-4-propyl-piperazin-1-yl)-pyrimidin-5-yl]-4-vinylbenzenesulfonamide, hydrochloride], the affinity in assay [1], expressed as Ki, was 6.2 nM. Also, the “Selectivity vs. D2L” value in assay [2] came to 254.
